Experimental findings from US5672604A, “1-phenylmethyl benzimidazole piperazine derivative” (Fabrica Espanola de Productos Quimicos y Farmaceuticos …, priority 1993, dated 1997) are described below.

Like-named read-outs stand apart in the source and are kept apart here.

One test concerns the target T1, 5HT3 receptor (Cavia porcellus, UniProt O70212).
T1 construct: Guinea pig ileum fragments; from tissue; host or cells: guinea pig ileum fragments
T1 sequence (O70212 20-490): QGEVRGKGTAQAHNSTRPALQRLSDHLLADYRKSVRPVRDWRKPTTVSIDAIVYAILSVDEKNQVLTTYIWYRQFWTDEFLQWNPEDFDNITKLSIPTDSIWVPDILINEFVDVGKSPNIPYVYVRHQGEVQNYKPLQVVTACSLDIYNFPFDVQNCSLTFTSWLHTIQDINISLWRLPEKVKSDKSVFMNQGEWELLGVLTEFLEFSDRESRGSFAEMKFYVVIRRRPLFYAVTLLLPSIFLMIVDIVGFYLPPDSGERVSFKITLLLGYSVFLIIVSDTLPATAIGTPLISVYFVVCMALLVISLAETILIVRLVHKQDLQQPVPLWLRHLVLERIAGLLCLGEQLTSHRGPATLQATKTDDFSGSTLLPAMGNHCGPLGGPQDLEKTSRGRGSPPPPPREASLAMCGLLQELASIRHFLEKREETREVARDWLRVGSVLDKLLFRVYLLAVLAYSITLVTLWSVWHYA
Kind of test: Inhibition of 2-methyl-serotonin induced contraction of guinea pig ileum. On the procedure:
b) Guinea pig ileum fragments were submerged in K-H solution at 37° C. pH 7.4, oxygenated with carbogen (95% O2 and 5% CO2) and with an effective preload of 1-2 g. They remained in a stabilization period for 45-60 minutes. and the physiological solution was replaced every 15 minutes. After this time, contractions were induced every 15 minutes, adding 2-methyl-serotonin (final conc.: 10 μmol/l). […] The inhibition percentages and CI50 were subsequently calculated (Table I).

For a further test, the system named is serotonin 5HT3 receptor. As to the kind of experiment: Inhibition of serotonin-induced Bezold-Jarisch reflex in anaesthetised rat. Format: in vivo, Wistar rats. Particulars: i.v., 5 minutes before serotonin. On the procedure:
After the arterial pressure (A.P.) and cardiac frequency (C.F.) parameters were stabilised, bradycardia reflex was induced by i.v. injection (the different dose of the drug tested) of 80 μv/kg (1 ml/kg) of serotonin dissolved in sterile physiological serum. Ten minutes later and after taking CF and AP back to constant levels, the products claimed herein were injected i.v. and after a lapse of five minutes, i.v. injection of the serotonin creatinine sulphate complex was repeated, quantifying the inhibition of the Bezold-Jarisch reflex.

The target of a further test is T2, 5HT3 (Rattus norvegicus, UniProt P35563).
T2 construct: cort-ento; from tissue; host or cells: entorhinal cortex ('cort-ento')
T2 sequence (P35563 24-483): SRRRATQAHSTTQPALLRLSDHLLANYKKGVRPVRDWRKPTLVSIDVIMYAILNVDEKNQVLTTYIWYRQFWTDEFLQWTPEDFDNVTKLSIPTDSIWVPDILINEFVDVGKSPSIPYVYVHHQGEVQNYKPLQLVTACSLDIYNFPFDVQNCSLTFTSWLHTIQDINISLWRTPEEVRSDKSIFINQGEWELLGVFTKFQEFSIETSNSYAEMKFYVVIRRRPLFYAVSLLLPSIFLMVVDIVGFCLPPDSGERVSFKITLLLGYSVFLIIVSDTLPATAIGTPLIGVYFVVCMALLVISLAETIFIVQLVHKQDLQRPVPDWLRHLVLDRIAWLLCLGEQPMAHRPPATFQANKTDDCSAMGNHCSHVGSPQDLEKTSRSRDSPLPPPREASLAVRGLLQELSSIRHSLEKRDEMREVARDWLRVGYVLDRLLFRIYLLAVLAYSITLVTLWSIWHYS
As to the kind of experiment: Bind 5HT3 cort-ento. Format: binding. Particulars: read-out: Bind 5HT3 cort-ento pki (converted).

Setting [1] is: guinea pig ileum, contraction by 2-methyl-serotonin 10 μmol/l, incubation 15 minutes, read-out: 2-me-5HT g.p. ileum CI50.

Regarding `Cc1ccc2c(c1)nc(N1CCNCC1)n2Cc1ccccc1` [Product 1, 5-methyl-1-phenylmethyl-2-piperazinyl-1H-benzimidazole], on 5HT3 receptor (setting [1]), the IC50 amounted to 28.3 nM.

As for `Clc1ccc2c(c1)nc(N1CCNCC1)n2Cc1ccccc1` [Product 2], at 5HT3 receptor, the IC50 was determined as 7.2 nM.

Regarding `O=[N+]([O-])c1ccc2c(c1)nc(N1CCNCC1)n2Cc1ccccc1` [Product 3], the “B-J reflex rat-anaesth. DE50” value with serotonin 5HT3 receptor was 7.4 μg/kg iv. Moreover, on 5HT3 receptor (setting [1]), the IC50 was 10.5 nM. The Ki at 5HT3 was 39.8 nM.

Consider `Fc1ccc2c(c1)nc(N1CCNCC1)n2Cc1ccccc1` [Product 4], for which the IC50 at 5HT3 receptor (setting [1]) turned out to be 1.65 nM.

For `Oc1ccc2c(c1)nc(N1CCNCC1)n2Cc1ccccc1` [Product 5], the IC50 at 5HT3 receptor (setting [1]) turned out to be 116 nM.

For the compound `Clc1cc2nc(N3CCNCC3)n(Cc3ccccc3)c2cc1Cl` [Product 6], on 5HT3 receptor (setting [1]), the IC50 was 265 nM.
